Experimental data taken from the NIST ThermoML archive (doi:10.1021/je7006742).
Numbers after ± are expanded uncertainties.

How the values were obtained:
[1] = 101 kPa, Liquid
[2] = xn = mol fraction of the nth substance listed; details: 101 kPa, Liquid

C=CC#N [acrylonitrile]
[1]
Details | mass density [kg/m3] | viscosity [mPa·s]
298.15 K | 794 ± 2 | 0.344 ± 0.042
308.15 K | 788 ± 2 | 0.307 ± 0.039
318.15 K | 783 ± 2 | 0.284 ± 0.037

O=Cc1ccccc1 [benzaldehyde]
[1]
Details | mass density [kg/m3] | viscosity [mPa·s]
298.15 K | 1041 ± 2 | 1.399 ± 0.13
308.15 K | 1034 ± 2 | 1.224 ± 0.12
318.15 K | 1027 ± 3 | 1.12 ± 0.11

O=CC=Cc1ccccc1 [(E)-3-phenyl-2-propanal]
[1]
Details | mass density [kg/m3] | viscosity [mPa·s]
298.15 K | 1046 ± 2 | 3.478 ± 0.31
308.15 K | 1039 ± 3 | 2.688 ± 0.24
318.15 K | 1032 ± 3 | 2.296 ± 0.21

O=CC=Cc1ccccc1 [(E)-3-phenyl-2-propanal] + C=CC#N
[2]
Details | mass density, 298.15 K [kg/m3] | mass density, 308.15 K [kg/m3] | mass density, 318.15 K [kg/m3] | speed of sound, 298.15 K [m/s] | viscosity, 298.15 K [mPa·s] | viscosity, 308.15 K [mPa·s] | viscosity, 318.15 K [mPa·s]
x2 = 0 | 1046 ± 2 | 1039 ± 3 | 1032 ± 3 | – | 3.478 ± 0.31 | 2.688 ± 0.24 | 2.296 ± 0.21
x2 = 0.2168 | 1017 ± 2 | 1011 ± 2 | – | – | 2.014 ± 0.18 | 1.698 ± 0.16 | –
x2 = 0.217 | – | – | 1009 ± 3 | 1487.6 ± 12 | – | – | 1.456 ± 0.14
x2 = 0.3837 | 990 ± 2 | 985 ± 2 | – | – | 1.4 ± 0.13 | 1.215 ± 0.12 | –
x2 = 0.384 | – | – | 983 ± 3 | 1433.3 ± 11 | – | – | 1.078 ± 0.11
x2 = 0.516 | – | – | 957 ± 2 | 1403 ± 11 | – | – | 0.83 ± 0.084
x2 = 0.5163 | 964 ± 2 | 958 ± 2 | – | – | 1.02 ± 0.1 | 0.906 ± 0.091 | –
x2 = 0.624 | – | – | 930 ± 2 | 1372 ± 11 | – | – | 0.684 ± 0.072
x2 = 0.6241 | 937 ± 2 | 931 ± 2 | – | – | 0.795 ± 0.081 | 0.724 ± 0.075 | –
x2 = 0.7135 | 911 ± 2 | 905 ± 2 | – | – | 0.646 ± 0.068 | 0.603 ± 0.065 | –
x2 = 0.714 | – | – | 904 ± 2 | 1330.3 ± 11 | – | – | 0.581 ± 0.063
x2 = 0.7889 | 886 ± 2 | 881 ± 2 | – | – | 0.56 ± 0.061 | 0.519 ± 0.057 | –
x2 = 0.789 | – | – | 878 ± 2 | 1288.7 ± 10 | – | – | 0.457 ± 0.052
x2 = 0.853 | – | – | 854 ± 2 | 1251.2 ± 10 | – | – | 0.43 ± 0.05
x2 = 0.8532 | 862 ± 2 | 856 ± 2 | – | – | 0.474 ± 0.053 | 0.441 ± 0.051 | –
x2 = 0.9088 | 839 ± 2 | 833 ± 2 | – | – | 0.423 ± 0.049 | 0.405 ± 0.047 | –
x2 = 0.909 | – | – | 830 ± 2 | 1224.1 ± 10 | – | – | 0.394 ± 0.047
x2 = 0.957 | – | – | 805 ± 2 | 1186.8 ± 9.9 | – | – | 0.348 ± 0.043
x2 = 0.9573 | 817 ± 2 | 810 ± 2 | – | – | 0.388 ± 0.046 | 0.359 ± 0.044 | –

COc1ccc(C=O)cc1 [4-methoxybenzaldehyde] + C=CC#N
[2]
Details | mass density, 298.15 K [kg/m3] | mass density, 308.15 K [kg/m3] | mass density, 318.15 K [kg/m3] | speed of sound, 298.15 K [m/s] | viscosity, 298.15 K [mPa·s] | viscosity, 308.15 K [mPa·s] | viscosity, 318.15 K [mPa·s]
x2 = 0 | 1120 ± 3 | 1112 ± 3 | 1105 ± 3 | – | 3.706 ± 0.33 | 2.83 ± 0.25 | 2.232 ± 0.2
x2 = 0.222 | 1079 ± 2 | 1072 ± 3 | 1066 ± 3 | 1446.6 ± 12 | 2.035 ± 0.19 | 1.828 ± 0.17 | 1.53 ± 0.14
x2 = 0.391 | 1040 ± 2 | 1034 ± 2 | 1029 ± 3 | 1384.8 ± 11 | 1.341 ± 0.13 | 1.226 ± 0.12 | 1.095 ± 0.11
x2 = 0.524 | 1003 ± 2 | 997 ± 2 | 992 ± 3 | 1345.8 ± 11 | 0.865 ± 0.087 | 0.852 ± 0.086 | 0.798 ± 0.081
x2 = 0.631 | 968 ± 2 | 962 ± 2 | 957 ± 2 | 1310 ± 11 | 0.742 ± 0.077 | 0.678 ± 0.071 | 0.644 ± 0.068
x2 = 0.72 | 934 ± 2 | 930 ± 2 | 924 ± 2 | 1277.6 ± 10 | 0.55 ± 0.06 | 0.538 ± 0.059 | 0.515 ± 0.057
x2 = 0.794 | 903 ± 2 | 898 ± 2 | 893 ± 2 | 1244.6 ± 10 | 0.545 ± 0.06 | 0.469 ± 0.053 | 0.443 ± 0.051
x2 = 0.857 | 873 ± 2 | 868 ± 2 | 864 ± 2 | 1217.8 ± 10 | 0.415 ± 0.048 | 0.404 ± 0.047 | 0.39 ± 0.046
x2 = 0.911 | 845 ± 2 | 840 ± 2 | 835 ± 2 | 1201.6 ± 10 | 0.435 ± 0.05 | 0.369 ± 0.044 | 0.37 ± 0.044
x2 = 0.958 | 819 ± 2 | 813 ± 2 | 808 ± 2 | – | 0.379 ± 0.045 | 0.333 ± 0.041 | 0.322 ± 0.04
x2 = 0.959 | – | – | – | 1186.8 ± 9.9 | – | – | –

O=Cc1ccccc1 [benzaldehyde] + C=CC#N
[2], x2 = 0
Details | mass density [kg/m3] | viscosity [mPa·s]
298.15 K | 1041 ± 2 | 1.399 ± 0.13
308.15 K | 1034 ± 2 | 1.224 ± 0.12
318.15 K | 1027 ± 3 | 1.12 ± 0.11

C=CC#N [acrylonitrile] + O=Cc1ccccc1
[2]
Details | mass density, 298.15 K [kg/m3] | mass density, 308.15 K [kg/m3] | mass density, 318.15 K [kg/m3] | speed of sound, 298.15 K [m/s] | viscosity, 298.15 K [mPa·s] | viscosity, 308.15 K [mPa·s] | viscosity, 318.15 K [mPa·s]
x1 = 0.182 | 1022 ± 2 | 1011 ± 2 | 1005 ± 3 | 1412.7 ± 11 | 1.224 ± 0.12 | 1.071 ± 0.11 | 0.973 ± 0.096
x1 = 0.333 | 995 ± 2 | 985 ± 2 | 980 ± 3 | 1394.7 ± 11 | 1.079 ± 0.11 | 0.941 ± 0.094 | 0.851 ± 0.086
x1 = 0.462 | 969 ± 2 | 959 ± 2 | 954 ± 2 | 1353.1 ± 11 | 0.958 ± 0.095 | 0.827 ± 0.084 | 0.746 ± 0.077
x1 = 0.571 | 940 ± 2 | 932 ± 2 | 928 ± 2 | 1322.4 ± 11 | 0.842 ± 0.085 | 0.724 ± 0.075 | 0.653 ± 0.069
x1 = 0.667 | 914 ± 2 | 906 ± 2 | 902 ± 2 | 1292.8 ± 11 | 0.74 ± 0.076 | 0.63 ± 0.067 | 0.571 ± 0.062
x1 = 0.75 | 887 ± 2 | 880 ± 2 | 877 ± 2 | 1259.4 ± 10 | 0.649 ± 0.069 | 0.55 ± 0.06 | 0.5 ± 0.056
x1 = 0.824 | 863 ± 2 | 856 ± 2 | 854 ± 2 | 1237.6 ± 10 | 0.565 ± 0.061 | 0.478 ± 0.054 | 0.436 ± 0.05
x1 = 0.889 | 839 ± 2 | 833 ± 2 | 830 ± 2 | 1212 ± 10 | 0.484 ± 0.054 | 0.416 ± 0.048 | 0.379 ± 0.045
x1 = 0.947 | 816 ± 2 | 810 ± 2 | 806 ± 2 | 1186.8 ± 9.9 | 0.41 ± 0.048 | 0.358 ± 0.043 | 0.328 ± 0.041
x1 = 1 | 794 ± 2 | 788 ± 2 | 783 ± 2 | – | 0.344 ± 0.042 | 0.307 ± 0.039 | 0.284 ± 0.037

C=CC#N [acrylonitrile] + O=CC=Cc1ccccc1
[2], x1 = 1
Details | mass density [kg/m3] | viscosity [mPa·s]
298.15 K | 794 ± 2 | 0.344 ± 0.042
308.15 K | 788 ± 2 | 0.307 ± 0.039
318.15 K | 783 ± 2 | 0.284 ± 0.037

COc1ccc(C=O)cc1 [4-methoxybenzaldehyde]
[1]
Details | mass density [kg/m3] | viscosity [mPa·s]
298.15 K | 1120 ± 3 | 3.706 ± 0.33
308.15 K | 1112 ± 3 | 2.83 ± 0.25
318.15 K | 1105 ± 3 | 2.232 ± 0.2

C=CC#N [acrylonitrile] + COc1ccc(C=O)cc1
[2], x1 = 1
Details | mass density [kg/m3] | viscosity [mPa·s]
298.15 K | 794 ± 2 | 0.344 ± 0.042
308.15 K | 788 ± 2 | 0.307 ± 0.039
318.15 K | 783 ± 2 | 0.284 ± 0.037
